Data as given in the NIST ThermoML archive (doi:10.1016/j.jct.2016.06.016).

Experiment: xn = mol fraction of the nth substance listed
Details: 100 kPa, Liquid; for viscosity: Concentric cylinders viscometry; for mass density: Vibrating tube method

CCOC(=O)CCC(=O)OCC [diethyl butanedioate] + CCCO
Details | mass density, 308.15 K [kg/m3] | mass density, 313.15 K [kg/m3] | mass density, 318.15 K [kg/m3] | mass density, 323.15 K [kg/m3] | viscosity, 308.15 K [mPa·s] | viscosity, 313.15 K [mPa·s] | viscosity, 318.15 K [mPa·s] | viscosity, 323.15 K [mPa·s]
x1 = 0.1 | 837.02 | 832.6 | 828.14 | 823.65 | 1.371 | 1.248 | 1.128 | 1.029
x1 = 0.2 | 873.57 | 868.94 | 864.27 | 859.57 | 1.316 | 1.209 | 1.096 | 1.006
x1 = 0.2999 | 903.69 | 898.89 | 894.07 | 889.22 | 1.328 | 1.222 | 1.11 | 1.025
x1 = 0.3998 | 928.98 | 924.07 | 919.14 | 914.18 | 1.376 | 1.265 | 1.15 | 1.065
x1 = 0.4999 | 950.59 | 945.59 | 940.58 | 935.55 | 1.444 | 1.325 | 1.206 | 1.118
x1 = 0.6001 | 969.27 | 964.21 | 959.14 | 954.05 | 1.524 | 1.398 | 1.274 | 1.18
x1 = 0.7001 | 985.54 | 980.44 | 975.33 | 970.21 | 1.619 | 1.484 | 1.352 | 1.251
x1 = 0.8002 | 999.9 | 994.77 | 989.62 | 984.48 | 1.731 | 1.586 | 1.443 | 1.334
x1 = 0.8997 | 1012.6 | 1007.44 | 1002.28 | 997.12 | 1.861 | 1.7 | 1.545 | 1.425
x1 = 1 | 1024.08 | 1018.9 | 1013.72 | 1008.55 | 2.008 | 1.821 | 1.66 | 1.523
